Measurements from patent US9034576B2, “Systems and methods for measuring translation of target proteins in cells” (ANIMA CELL METROLOGY INC., priority 2009, dated 2015).

Legend:
[1] = tested on: HEK cells; experiment: Live cell tRNA:tRNA FRET imaging before and after cycloheximide treatment; type: cell-based; settings: HEK cells transfected with rhodamine 110 (donor) and Cy3 (acceptor) labeled bulk yeast tRNA; same cells imaged prior to and following treatment
Procedure: (§1) Fluorescent labeled tRNA were then introduced into live HEK-293, HeLa and CHO cells, employing a transfection protocol. One day prior to the transfection experiment, the cells were seeded on fibronectin-coated glass slides in a 24-well plate. On the following day, the growth medium was removed and 0.5 ml of fresh medium was added to each well containing the sub-confluent monolayers. 10 minutes later, 0.1 ml of the labeled-tRNA mixed with the transfection reagent and serum-free media were added to each well. The plate was incubated at 37° C. in a 5% CO2 incubator for 6-8 hr, followed by fixation with 4% paraformaldehyde for 20 min and mounting using fluorescent mounting medium. The fixed cells on glass slides were then visualized employing a spinning disk confocal microscope.
(§2) In order to determine the imaging parameters to be employed in the following experiments, including the degree of non-specific signal stemming from the cross-stimulation of different fluorophores, cells were transfected with donor only and with acceptor only, and imaged in the exact conditions employed for the FRET measurement. The calibration coefficients for computing the NFret (corrected FRET) image were NFret=FRET−0.011*donor−0.004*acceptor. […]

[2] = tested on: CHO cells; experiment: as above; type: cell-based; settings: CHO cells transfected with rhodamine 110 (donor) and Cy3 (acceptor) labeled bulk yeast tRNA; same cells imaged prior to and following treatment
Procedure: as §1, §2

[3] = tested on: premature termination codons (PTC); settings: genetic disorders with premature termination codons; Welch E M et al, Nature 2007; cited from earlier work

Row | SMILES | FRET signal intensity [1] | FRET signal intensity [2] | amount of required protein produced [3]
1 | C[C@@H]1C[C@@H]([C@H](O)CC2CC(=O)NC(=O)C2)C(=O)[C@@H](C)C1 [cycloheximide] | increase in FRET signal intensity | increase in FRET signal intensity | 
2 | O=C(O)c1cccc(-c2noc(-c3ccccc3F)n2)c1 [PTC124] |  |  | 1-5 % of normal concentrations
